Columns and labels:
[1] = Human hepatocyte in vitro liver metabolism assay (HHep); type: in vitro ADME; settings: cryopreserved human hepatocytes, 0.5 million viable cells per mL, 37° C.
From the text: In particular, the human intestinal S9 fraction in vitro stability assay (HInt) and human hepatocyte in vitro liver metabolism assay (HHep) provide important information regarding the clearance and metabolic activation of these compounds. The human intestinal S9 fraction in vitro stability assay provides a surrogate measure of compound metabolism as it travels across the gut wall; compounds with low CLint values more likely to enter the portal vein and be exposed to the liver. Likewise, the human hepatocyte in vitro liver metabolism assay provides a surrogate measure of compound metabolism when exposed to liver; compounds with high CLint values are more likely to be metabolically activated. For compounds such as prodrugs that release an active species on metabolic activation, high CLint values in human hepatocytes are desirable. Active compounds released in this way inhibit PCSK9 and show improved atherosclerotic properties by increased exposure of the active metabolite in the liver.
Human Hepatocyte In Vitro Liver Metabolism Assay (HHep)
In order to determine the rate of metabolism leading to conversion of prodrug into active drug form, experiments utilizing human hepatocytes were performed. Hepatocytes are an ideal in vitro system to monitor hepatic metabolism since these intact cells contain all the hepatic enzymes found in vivo, including phase I enzymes (such as CYPs, aldehyde oxidases, esterases and MAOs) and phase II enzymes (such as UDP-glucuronyltransferases and sulfotransferases). The assay utilizes isolated hepatocytes from human donors incubated with the compound of interest in conditions mimicking physiological conditions where the metabolic stability of the compound is investigated. The experimental protocol is as follows. Vials of cryopreserved human hepatocytes (stored in liquid nitrogen until used for testing) were thawed in a water bath (37 to 40° C.) until nearly thawed, transferred to a conical tube, resuspended by inversion and subsequently centrifuged at 50-90 g at room temperature for 5 min. The supernatant was then discarded and the pellet loosened by gently tapping the end of the conical tube. William's E media was then added to achieve the desired final cell density (0.5 million viable cells per mL), and the hepatocytes were then resuspended in this fresh media. The viable cell count was then determined using the trypan blue exclusion method where a minimum viability of 70% was obtained. At this point, new molecular entities (NME's) were prepared for testing. In brief, the NME was diluted with DMSO such that final incubation concentration of NME was […] and final DMSO content was 0.1%. Assays were conducted in a 384-well format at 37° C. in an incubator held at 95% air to 5% CO2 at 95% relative humidity. The per-well incubation total incubation volume was 20 μL including hepatocytes and NME. The assay was performed using 7 hepatocyte plates where the plates were designated as sampling times 0, 15, 30, 60, 120 and 240 min and include hepatocytes and NME, and a no NME control plate with hepatocytes that was taken at 240 min. Two additional no hepatocyte containing control plates were prepared and subsequently sampled at 0 and 240 min, respectively, and were identical to the hepatocyte containing plates with respect to NME and media composition. The incubations were stopped using acetonitrile and prepared for analytical testing using liquid chromatography mass-spectrometry (LC/MS) detection. Each NME was optimized for LC/MS analytical conditions. A disappearance curve was generated from the sample time point analytical peak areas and compared to control plate results (control plates allow artifacts such as non-hepatocyte mediated decline (e.g., media/condition instability for the NME) to be determined). The slope of the disappearance curve was used to determine metabolic stability expressed CLint. […]

human PCSK9 = test: PCSK9 AlphaLISA assay, PCSK9 lowering in WT7 cells; settings: WT7 cells (Huh7 stably over-expressing human PCSK9), secreted PCSK9 by AlphaLISA, overnight incubation (16-24 h), top concentration 20 μM; read-out: Cell Based PCSK9 IC50
From the text: PCSK9 Lowering in WT7 Cells
An in-vitro AlphaLISA assay (Perkin Elmer) was developed in order to quantitate the level of PCSK9 secreted into the cell culture media following compound treatment. To detect and measure PCSK9 protein a mouse monoclonal anti-human PCSK9 antibody was coupled to AlphaLISA acceptor beads by an external vendor (Perkin Elmer) and a second rabbit monoclonal anti-human PCSK9 antibody with an epitope distinct from that of the acceptor beads was biotinylated using the EZ link NHS-LC-LC-Biotin kit (Life Technologies #21338). Streptavidin coated-donor beads (Perkin Elmer) are also included in the assay mixture which then binds the biotinylated anti-PCSK9 antibody and in the presence of PCSK9 this donor complex and acceptor beads are brought into close proximity. Upon excitation of the donor beads at 680 nm singlet oxygen molecules are released that trigger an energy transfer cascade within the acceptor beads resolving as a single peak of light emitted at 615 nm. The ability of compound to modulate PCSK9 protein levels in conditioned media by AlphaLISA was assessed in the human hepatocellular carcinoma cell line Huh7, stably over-expressing human PCSK9. This cell line, termed WT7, was established by transfecting Huh7 cells with an in-house modified pcDNA 3.1 (+) Zeo expression vector (Life Technologies) containing the full-length human PCSK9 sequence (NCBI reference identifier, NM_174936.3, where coding sequence start annotated at position 363) and a c-terminal V5 and 6×-His tag. Following plasmid transfection the stable WT7 clone was identified and maintained under Zeocin selection. Compound screening was performed in 384-well plates where WT7 cells were plated at a density of 7500 cells per well in 20 μL of tissue culture media containing compound in an eleven point, 0.5 log dilution format at a high treatment concentration of 20 μM in a final volume of 0.5% DMSO. In additional to these test compound conditions each screening plate also included wells that contained 20 μM puromycin as a positive assay control defined as high percent effect, HPE, as well as wells containing media in 0.5% DMSO as a negative treatment control defined as zero percent effect, ZPE. After overnight compound incubation (16-24 h) the tissue culture media was collected and an aliquot from each sample was transferred to individual wells of a 384-well white Optiplate (Perkin Elmer). The coupled antibodies and donor beads were added to the assay plates in a buffer composed of 30 mM Tris pH 7.4, 0.02% Tween-20 and 0.02% Casein. Anti-PCSK9 acceptor beads (final concentration of 10 μg/mL) and anti-PCSK9 biotinylated antibody (final concentration of 3 nM) were added and incubated for 30 minutes at room temperature followed by the addition of the streptavidin donor beads (final concentration 40 μg/mL) for an additional 60 minutes. Additionally a standard curve was generated where AlphaLISA reagents were incubated in wells spiked with recombinant human PCSK9 diluted in tissue culture media from 5000 ng/mL to 0.6 ng/mL. Following incubation with AlphaLISA reagents plates were read on an EnVision (Perkin Elmer) plate reader at an excitation wavelength of […] and emission/detection wavelength of […]. To determine compound IC50 the data for HPEand ZPEcontrol wells were first analyzed and the mean, standard deviation and Z prime calculated for each plate. The test compound data were converted into percent effect, using the ZPE and HPE controls as 0% and 100% activity, respectively. The equation used for converting each well reading into percent effect was:
IC50 was then calculated and reported as the midpoint in the percent effect curve in molar units and the values are reported under the Cell Based PCSK9 IC50 (μM) column header within Table 2 Biological Data. […]

| IC50 (human PCSK9) | Structure (SMILES) | HHep CLint [1] |
| --- | --- | --- |
| > 20 µM | CCOC(=O)O[C@H](C)n1nnnc1-c1c(-c2ccc(C(=O)N(c3ncccc3C)[C@@H]3CCCNC3)cc2)cnn1C [Example 5b, ethyl (R)-1-{5-[1-methyl-4-(4-{(3-methylpyridin-2-yl)[(3R)-piperidin-3-yl]carbamoyl}phenyl)-1H-pyrazol-5-yl]-1H-tetrazol-1-yl}ethyl carbonate] | 85.0 μL/min/mil |
| 16.1 µM | CCOC(=O)O[C@H](C)n1nnnc1-c1c(-c2ccc(C(=O)N(c3ncccc3Cl)[C@@H]3CCCNC3)cc2F)cnn1C [Example 11, ethyl (R)-1-{5-[4-(4-{(3-chloropyridin-2-yl)[(3R)-piperidin-3-yl]carbamoyl}-2-fluorophenyl)-1-methyl-1H-pyrazol-5-yl]-1H-tetrazol-1-yl}ethyl carbonate] | >170 μL/min/mil |
| > 20 µM | CCOC(=O)O[C@@H](C)n1nnnc1-c1c(-c2ccc(C(=O)N(c3ncccc3C)[C@@H]3CCCNC3)cc2F)cnn1C [Example 8, ethyl (S)-1-{5-[4-(4-{(3-methylpyridin-2-yl)[(3R)-piperidin-3-yl]carbamoyl}-2-fluorophenyl)-1-methyl-1H-pyrazol-5-yl]-1H-tetrazol-1-yl}ethyl carbonate] | 51.3 μL/min/mil |
| > 20 µM | CCOC(=O)O[C@@H](C)n1nnnc1-c1c(-c2ccc(C(=O)N(c3ncccc3Cl)[C@@H]3CCCNC3)nc2)cnn1C [Example 10, ethyl (S)-1-{5-[4-(6-{(3-chloropyridin-2-yl)[(3R)-piperidin-3-yl]carbamoyl}pyridin-3-yl)-1-methyl-1H-pyrazol-5-yl]-1H-tetrazol-1-yl}ethyl carbonate] | 11.8 μL/min/mil |
| > 20 µM | CCOC(=O)O[C@@H](C)n1nnnc1-c1c(-c2ccc(C(=O)N(c3ncccc3Cl)[C@@H]3CCCNC3)cc2)cnn1C [Example 6, ethyl (S)-1-{5-[1-methyl-4-(4-{(3-chloropyridin-2-yl)[(3R)-piperidin-3-yl]carbamoyl}phenyl)-1H-pyrazol-5-yl]-1H-tetrazol-1-yl}ethyl carbonate] | 71.2 μL/min/mil |
| > 20 µM | CCOC(=O)O[C@@H](C)n1nnnc1-c1c(-c2ccc(C(=O)N(c3ncccc3C)[C@@H]3CCCNC3)cc2)cnn1C [Example 5a, ethyl (S)-1-{5-[1-methyl-4-(4-{(3-methylpyridin-2-yl)[(3R)-piperidin-3-yl]carbamoyl}phenyl)-1H-pyrazol-5-yl]-1H-tetrazol-1-yl}ethyl carbonate] | 57.2 μL/min/mil |
| > 20 µM | CCOC(=O)O[C@@H](C)n1nnnc1-c1c(-c2ccc(C(=O)N(c3ncccc3C)[C@@H]3CCCNC3)nc2)cnn1C [Example 9, ethyl (S)-1-{5-[1-methyl-4-(6-{(3-methylpyridin-2-yl)[(3R)-piperidin-3-yl]carbamoyl}pyridin-3-yl)-1H-pyrazol-5-yl]-1H-tetrazol-1-yl}ethyl carbonate] | 7.0 μL/min/mil |
| > 20 µM | CCOC(=O)O[C@@H](C)n1nnnc1-c1c(-c2ccc(C(=O)N(c3ncccc3Cl)[C@@H]3CCCNC3)cc2F)cnn1C [Example 7, ethyl (S)-1-{5-[4-(4-{(3-chloropyridin-2-yl)[(3R)-piperidin-3-yl]carbamoyl}-2-fluorophenyl)-1-methyl-1H-pyrazol-5-yl]-1H-tetrazol-1-yl}ethyl carbonate] | 97.6 μL/min/mil |
| > 20 µM | Cn1ncc(-c2ccc(C(=O)N(c3ncccc3Cl)[C@@H]3CCCNC3)cc2F)c1-c1nn[nH]n1 [Example 3, N-(3-chloropyridin-2-yl)-3-fluoro-4-[1-methyl-5-(2H-tetrazol-5-yl)-1H-pyrazol-4-yl]-N-[(3R)-piperidin-3-yl]benzamide] |  |

Source: patent US20160102074A1, “SUBSTITUTED AMIDE COMPOUNDS” (PFIZER INC., priority 2014, published 2016)
